Literature values as cited in patent US20260364145A1, “MODIFIED CAVEOLIN-1 PEPTIDE FORMULATIONS AND METHODS OF MANUFACTURING AND USE THEREOF” (REIN THERAPEUTICS, INC., priority 2023, published 2026).

Tests used:
Conditions in all cases: cited from earlier work
[1] = system: fibrosis
[2] = system: Wnt-signaling, β-catenin-mediated transcription, activation of SRC, EGFR, MEK1 and ERK-2
[3] = system: Cav-1 interaction with SRC kinases

DGIWKASFTTFTVTKYWFYR [CSP 20-mer]
effect on fibrosis ([1]; animal models): prevent, limit, or reverse fibrosis in animal models | effect on lung aSMA, epithelial apoptosis, collagen and profibrogenic signaling ([1]; in vivo): reduced lung aSMA and lung epithelial apoptosis, reduced collagen deposition, and down-regulation of expression of profibrogenic signaling molecules | effect on signaling [2]: inhibition of Wnt-signaling, β-catenin-mediated transcription, activation of SRC, EGFR, MEK1 and ERK-2 | effect on Cav-1 interaction with SRC kinases [3]: interferes with Cav-1 interaction with SRC kinases
